Test results reported in patent US9765069B2, “Antimicrobial compounds” (OXFORD UNIVERSITY INNOVATION LIMITED, priority 2012, dated 2017).
pIC50: −log10 of the molar value. In brackets after ≈: the same amount, converted by molar mass.

Key:
S1 = experiment: MIC determination (bacteria), strain S1; assay type: cell-based, S. aureus; conditions: 2-fold broth dilution
Description: (§1) MIC determination (bacteria); MICs were determined based on Clinical and Laboratory Standards Institute (CLSI) methodology (Methods for dilution antimicrobial susceptibility tests for bacteria that grow aerobically; Approved Standard—seventh edition. 2006, M7-A7, CLSI, Wayne Pa.) by a 2-fold broth dilution technique in Mueller Hinton (pH7.4 Biorad). For S. pneumoniae, the medium was supplemented with 2.5% laked horse blood. For H. influenzae, the medium was haemophilus test medium (H.T.M.). Overnight cultures were diluted to obtain the final inoculum of 10^5 cfu/well. Incubation was 37° C. overnight in ambient air. The MIC was defined as the lowest concentration which inhibited all visual growth and expressed in μg/ml. For each bacterial species, all of the molecules were tested in the same experiment in order to give a head-to-head comparison.

S26 = experiment: MIC determination (bacteria), strain S26; assay type: cell-based, S. aureus; conditions: 2-fold broth dilution
Description: as §1

S4 = experiment: MIC determination (bacteria), strain S4; assay type: cell-based, S. aureus; conditions: 2-fold broth dilution
Description: as §1

[1] = tested on: S2 (S. aureus 2, MRSA in vivo); experiment: MIC determination (bacteria), strain S2; assay type: cell-based; conditions: 2-fold broth dilution
Description: as §1

E1 = experiment: MIC determination (bacteria), strain E1; assay type: cell-based, enterococcus; conditions: 2-fold broth dilution
Description: as §1

E2 = experiment: MIC determination (bacteria), strain E2; assay type: cell-based, enterococcus; conditions: 2-fold broth dilution
Description: as §1

P1 = experiment: MIC determination (bacteria), strain P1; assay type: cell-based, S. pneumoniae; conditions: 2-fold broth dilution
Description: as §1

P9 = experiment: MIC determination (bacteria), strain P9; assay type: cell-based, S. pneumoniae; conditions: 2-fold broth dilution
Description: as §1

P9B = experiment: MIC determination (bacteria), strain P9B; assay type: cell-based, S. pneumoniae; conditions: 2-fold broth dilution
Description: as §1

H3 = experiment: MIC determination (bacteria), strain H3; assay type: cell-based, H. influenzae; conditions: haemophilus test medium
Description: as §1

H4 = experiment: MIC determination (bacteria), strain H4; assay type: cell-based, H. influenzae; conditions: haemophilus test medium
Description: as §1

S. aureus membrane = experiment: In vitro activity in depolarization of S. aureus membrane; assay type: cell-based; conditions: read-out: DEP (IC50)
Text: (§2) These properties can be determined according to techniques that are well known in the art.

[2] = tested on: mammalian_red blood cell membrane; experiment: In vitro mammalian red blood cell membrane lysis activity; assay type: cell-based; conditions: Active or inactive at 100 μM
Text: as §2

[3] = tested on: human embryonic kidney 293 cells; experiment: in vitro toxicities against human embryonic kidney 293 cells; assay type: cell-based; conditions: human embryonic kidney 293 cells
Text: as §2

[4] = tested on: human peripheral blood cells; experiment: in vitro toxicities human peripheral blood cells; assay type: cell-based; conditions: human peripheral blood cells
Text: as §2

[5] = aqueous solubility at pH 7.4; assay type: physicochemical; conditions: aqueous solubility at pH 7.4 (water with 2% DMSO)
Text: as §2

E. Coli RNAP = E. Coli RNAP (Escherichia coli, UniProt P0A8T7+P0A8V2); experiment: In vitro activity against E. Coli RNAP; assay type: biochemical
Chain of E. Coli RNAP (P0A8V2 whole entry): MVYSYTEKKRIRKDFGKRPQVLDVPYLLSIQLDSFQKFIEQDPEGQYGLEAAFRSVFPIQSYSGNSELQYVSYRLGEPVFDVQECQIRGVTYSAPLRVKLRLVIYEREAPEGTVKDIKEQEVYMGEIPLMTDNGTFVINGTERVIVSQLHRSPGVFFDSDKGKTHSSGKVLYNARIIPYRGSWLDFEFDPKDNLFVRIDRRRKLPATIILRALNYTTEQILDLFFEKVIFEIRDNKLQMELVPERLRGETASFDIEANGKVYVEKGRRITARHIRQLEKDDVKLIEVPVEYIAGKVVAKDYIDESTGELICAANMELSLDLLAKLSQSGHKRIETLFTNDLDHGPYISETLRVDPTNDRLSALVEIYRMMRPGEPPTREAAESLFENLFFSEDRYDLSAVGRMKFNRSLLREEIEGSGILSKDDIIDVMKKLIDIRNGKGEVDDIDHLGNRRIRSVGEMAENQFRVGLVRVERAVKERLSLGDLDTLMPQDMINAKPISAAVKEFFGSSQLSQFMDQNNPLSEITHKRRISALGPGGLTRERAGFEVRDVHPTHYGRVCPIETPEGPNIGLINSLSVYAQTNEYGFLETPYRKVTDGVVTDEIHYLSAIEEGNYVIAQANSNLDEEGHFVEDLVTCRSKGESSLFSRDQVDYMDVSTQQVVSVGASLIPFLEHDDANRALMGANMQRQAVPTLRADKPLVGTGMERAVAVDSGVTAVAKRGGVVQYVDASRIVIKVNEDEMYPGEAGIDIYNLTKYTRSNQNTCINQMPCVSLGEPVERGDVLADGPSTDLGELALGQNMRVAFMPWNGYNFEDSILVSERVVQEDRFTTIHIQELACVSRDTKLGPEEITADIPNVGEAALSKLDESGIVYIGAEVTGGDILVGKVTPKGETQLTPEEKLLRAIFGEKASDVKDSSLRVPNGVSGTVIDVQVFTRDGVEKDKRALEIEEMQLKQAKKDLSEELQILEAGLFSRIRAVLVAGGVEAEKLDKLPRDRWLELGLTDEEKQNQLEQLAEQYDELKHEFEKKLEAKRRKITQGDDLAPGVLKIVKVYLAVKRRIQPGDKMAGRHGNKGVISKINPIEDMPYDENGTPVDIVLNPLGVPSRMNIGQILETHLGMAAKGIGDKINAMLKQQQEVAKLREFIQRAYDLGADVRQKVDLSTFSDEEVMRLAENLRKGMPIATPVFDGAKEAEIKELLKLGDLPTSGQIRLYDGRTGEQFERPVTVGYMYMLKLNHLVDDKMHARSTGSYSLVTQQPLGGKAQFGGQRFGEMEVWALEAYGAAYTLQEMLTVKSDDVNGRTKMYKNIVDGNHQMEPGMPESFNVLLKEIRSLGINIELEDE
Chain of E. Coli RNAP (P0A8T7 whole entry): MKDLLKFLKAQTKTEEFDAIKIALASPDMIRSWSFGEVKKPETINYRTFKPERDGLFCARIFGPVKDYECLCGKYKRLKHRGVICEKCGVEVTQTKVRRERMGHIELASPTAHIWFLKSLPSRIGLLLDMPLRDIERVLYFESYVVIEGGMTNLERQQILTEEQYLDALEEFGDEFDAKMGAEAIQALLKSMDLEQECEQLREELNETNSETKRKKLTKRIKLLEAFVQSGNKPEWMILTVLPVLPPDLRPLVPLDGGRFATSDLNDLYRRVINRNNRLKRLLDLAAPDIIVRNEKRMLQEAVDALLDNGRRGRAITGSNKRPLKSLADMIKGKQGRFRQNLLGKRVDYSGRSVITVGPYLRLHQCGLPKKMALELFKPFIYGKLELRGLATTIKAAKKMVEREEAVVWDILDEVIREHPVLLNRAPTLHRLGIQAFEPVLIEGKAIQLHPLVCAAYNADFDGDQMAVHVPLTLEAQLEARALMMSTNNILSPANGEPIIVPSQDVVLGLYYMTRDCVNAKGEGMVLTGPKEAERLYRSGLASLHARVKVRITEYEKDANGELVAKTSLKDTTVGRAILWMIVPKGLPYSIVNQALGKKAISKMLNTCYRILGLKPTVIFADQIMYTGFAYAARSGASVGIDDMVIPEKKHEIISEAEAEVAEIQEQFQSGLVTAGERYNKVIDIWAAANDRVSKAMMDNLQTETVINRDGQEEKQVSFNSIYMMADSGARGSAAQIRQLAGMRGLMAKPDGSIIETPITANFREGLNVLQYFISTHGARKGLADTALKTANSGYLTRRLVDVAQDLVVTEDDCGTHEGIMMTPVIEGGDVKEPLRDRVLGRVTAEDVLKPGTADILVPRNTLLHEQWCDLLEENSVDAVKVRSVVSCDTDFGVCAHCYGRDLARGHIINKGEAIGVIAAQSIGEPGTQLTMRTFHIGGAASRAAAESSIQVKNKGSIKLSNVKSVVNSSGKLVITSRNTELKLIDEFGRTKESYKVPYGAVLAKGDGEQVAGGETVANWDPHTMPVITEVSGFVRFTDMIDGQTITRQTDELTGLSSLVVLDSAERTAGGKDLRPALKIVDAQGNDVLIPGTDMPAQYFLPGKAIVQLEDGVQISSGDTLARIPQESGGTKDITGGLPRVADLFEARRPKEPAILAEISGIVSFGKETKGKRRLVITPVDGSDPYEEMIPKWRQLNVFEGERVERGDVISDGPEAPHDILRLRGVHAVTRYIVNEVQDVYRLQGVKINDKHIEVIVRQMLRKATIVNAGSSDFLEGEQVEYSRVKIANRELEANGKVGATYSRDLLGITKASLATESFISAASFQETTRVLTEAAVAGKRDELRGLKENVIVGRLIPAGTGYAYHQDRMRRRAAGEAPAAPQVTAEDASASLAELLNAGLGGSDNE
Chain of E. Coli RNAP (P0A7Z4 whole entry partner): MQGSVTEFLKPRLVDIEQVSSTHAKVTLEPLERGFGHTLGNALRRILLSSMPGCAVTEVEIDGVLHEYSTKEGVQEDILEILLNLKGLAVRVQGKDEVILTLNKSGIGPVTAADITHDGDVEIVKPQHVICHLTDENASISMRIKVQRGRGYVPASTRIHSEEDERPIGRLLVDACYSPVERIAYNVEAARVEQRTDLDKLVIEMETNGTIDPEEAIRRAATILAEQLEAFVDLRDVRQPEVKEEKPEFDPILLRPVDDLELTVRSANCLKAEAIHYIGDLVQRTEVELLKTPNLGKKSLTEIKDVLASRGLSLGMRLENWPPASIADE
Chain of E. Coli RNAP (P0A800 whole entry partner): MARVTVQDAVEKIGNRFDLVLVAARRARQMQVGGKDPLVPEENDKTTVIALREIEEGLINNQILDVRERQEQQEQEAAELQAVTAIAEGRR
Text: as §2

## CCCCCCCCCC(O)=C1C(=O)C(CCSC)N(C(=O)Cc2cccs2)C1=O (stereo not shown) [24m]
S1; Table 1
  MIC S1: 2 µg/mL (≈ 4.43 µM)
S26; Table 1
  MIC S26: 4 µg/mL (≈ 8.86 µM)
S4; Table 1
  MIC S4: 2 µg/mL (≈ 4.43 µM)
[1]; Table 1
  MIC S2: 2 µg/mL (≈ 4.43 µM)
E1; Table 1
  MIC E1: 2 µg/mL (≈ 4.43 µM)
E2; Table 1
  MIC E2: 0.5 µg/mL (≈ 1.11 µM)
P1; Table 1
  MIC P1: 0.5 µg/mL (≈ 1.11 µM)
P9; Table 1
  MIC P9: 0.25 µg/mL (≈ 0.554 µM)
P9B; Table 1
  MIC P9B: 4 µg/mL (≈ 8.86 µM)
H3; Table 1
  MIC H3: 16 µg/mL (≈ 35.4 µM)
H4; Table 1
  MIC H4: 4 µg/mL (≈ 8.86 µM)
S. aureus membrane
  pIC50: < 4.00
[2]
  RBC membrane lysis activity (active/inactive): Active
[3]
  Hek293 (LD50, μM): 30.3 µM
[4]
  PMBC (LD50, μM): 90.9 µM
[5]
  SOL: >300 µM

## CCCCCCC(=O)N1CC(=O)C(=C(O)CCCC2CCCCC2)C1=O [27c]
S1; Table 2
  MIC S1: 0.25 µg/mL (≈ 0.688 µM)
S26; Table 2
  MIC S26: 1 µg/mL (≈ 2.75 µM)
S4; Table 2
  MIC S4: 0.5 µg/mL (≈ 1.38 µM)
[1]; Table 2
  MIC S2: 1 µg/mL (≈ 2.75 µM)
E1; Table 2
  MIC E1: 0.5 µg/mL (≈ 1.38 µM)
E2; Table 2
  MIC E2: 0.12 µg/mL (≈ 0.33 µM)
P1; Table 2
  MIC P1: 0.12 µg/mL (≈ 0.33 µM)
P9; Table 2
  MIC P9: <0.06 µg/mL
P9B; Table 2
  MIC P9B: 2 µg/mL (≈ 5.5 µM)
H3; Table 2
  MIC H3: 2 µg/mL (≈ 5.5 µM)
H4; Table 2 and its footnote f
  MIC H4: 1 µg/mL (≈ 2.75 µM)
E. Coli RNAP
  pIC50: < 4.00
S. aureus membrane
  pIC50: < 4.00
[3]
  Hek293 (LD50, μM): 30.3 µM
[4]
  PMBC (LD50, μM): 90.9 µM
[5]
  SOL: >200 µM

## CCCCCCCCCC(O)=C1C(=O)CCN(C(=O)c2ccccc2)C1=O [25a]
S1; Table 1
  MIC S1: 2 µg/mL (≈ 5.38 µM)
S26; Table 1
  MIC S26: 4 µg/mL (≈ 10.8 µM)
S4; Table 1
  MIC S4: 2 µg/mL (≈ 5.38 µM)
[1]; Table 1
  MIC S2: 4 µg/mL (≈ 10.8 µM)
E1; Table 1
  MIC E1: 2 µg/mL (≈ 5.38 µM)
E2; Table 1
  MIC E2: 4 µg/mL (≈ 10.8 µM)
P1; Table 1
  MIC P1: 0.5 µg/mL (≈ 1.35 µM)
P9; Table 1
  MIC P9: 0.5 µg/mL (≈ 1.35 µM)
P9B; Table 1
  MIC P9B: 4 µg/mL (≈ 10.8 µM)
H3; Table 1
  MIC H3: 16 µg/mL (≈ 43.1 µM)
H4; Table 1
  MIC H4: 8 µg/mL (≈ 21.5 µM)
E. Coli RNAP
  pIC50: < 4.00
S. aureus membrane
  pIC50: 4.08
[2]
  RBC membrane lysis activity (active/inactive): Inactive^d
[3]
  Hek293 (LD50, μM): >90.9 µM
[4]
  PMBC (LD50, μM): >90.9 µM
[5]
  SOL: >300 µM

## CSCCC1C(=O)C(=C(O)CC23CC4CC(C)(CC(C)(C4)C2)C3)C(=O)N1C(C)=O (stereo not shown) [31e]
S1; Table 2
  MIC S1: 2 µg/mL (≈ 4.77 µM)
S26; Table 2
  MIC S26: 1 µg/mL (≈ 2.38 µM)
S4; Table 2
  MIC S4: 4 µg/mL (≈ 9.53 µM)
[1]; Table 2
  MIC S2: 4 µg/mL (≈ 9.53 µM)
E1; Table 2
  MIC E1: 4 µg/mL (≈ 9.53 µM)
E2; Table 2
  MIC E2: 4 µg/mL (≈ 9.53 µM)
P1; Table 2
  MIC P1: 2 µg/mL (≈ 4.77 µM)
P9; Table 2
  MIC P9: 2 µg/mL (≈ 4.77 µM)
P9B; Table 2
  MIC P9B: 4 µg/mL (≈ 9.53 µM)
H3; Table 2
  MIC H3: 32 µg/mL (≈ 76.3 µM)
H4; Table 2 and its footnote f
  MIC H4: 4 µg/mL (≈ 9.53 µM)
E. Coli RNAP
  pIC50: 4.96
S. aureus membrane
  pIC50: 4.04
[2]
  RBC membrane lysis activity (active/inactive): Active
[3]
  Hek293 (LD50, μM): 30.3 µM
[4]
  PMBC (LD50, μM): 90.9 µM
[5]
  SOL: >300 µM

## CCCCCCC(=O)N1CC(=O)C(=C(O)CCCOc2ccc(Cl)cc2C)C1=O [28h]
S1; Table 2
  MIC S1: 1 µg/mL (≈ 2.37 µM)
S26; Table 2
  MIC S26: 4 µg/mL (≈ 9.48 µM)
S4; Table 2
  MIC S4: 4 µg/mL (≈ 9.48 µM)
[1]; Table 2
  MIC S2: 2 µg/mL (≈ 4.74 µM)
E1; Table 2
  MIC E1: 0.5 µg/mL (≈ 1.19 µM)
E2; Table 2
  MIC E2: 0.5 µg/mL (≈ 1.19 µM)
P1; Table 2
  MIC P1: 0.5 µg/mL (≈ 1.19 µM)
P9; Table 2
  MIC P9: 0.5 µg/mL (≈ 1.19 µM)
P9B; Table 2
  MIC P9B: 4 µg/mL (≈ 9.48 µM)
H3; Table 2
  MIC H3: 8 µg/mL (≈ 19 µM)
H4; Table 2 and its footnote f
  MIC H4: 4 µg/mL (≈ 9.48 µM)
E. Coli RNAP
  pIC50: 4.48
[3]
  Hek293 (LD50, μM): 30.3 µM
[4]
  PMBC (LD50, μM): 90.9 µM
[5]
  SOL: >300 µM

## CNC(=O)[C@@H](C)[C@H]1C(=O)/C(=C(O)/C=C/C(C)=C/[C@@H](C)[C@H]2O[C@@]3(C)O[C@H](C=C[C@@]34CO4)[C@@H]2C)C(=O)N1[C@@H]1CC[C@H](O)[C@H](C)O1 [streptolydigin, reference compound]
E. Coli RNAP
  pIC50: 4.42
